Assay results taken from patent US9669031B2, “MNK inhibitors and methods related thereto” (eFFECTOR Therapeutics, Inc., priority 2014, dated 2017).
Where a name gives a salt, the structure may show the parent alone. Read-outs that look alike come from different tables or passages of the source.

Experiments:
in vivo = settings: Balb/c, mouse, po, 10 mg/kg; for AUC(0-t): AUClast; for half-life: T½
[1] = Balb/c, mouse, in vivo, po, 10 mg/kg
[2] = Pharmacokinetics in Balb/c mice, single intravenous bolus administration; format: in vivo; settings: intravenous bolus 1 mg/kg, gender F; for AUC(0-inf) / half-life / Vd: female, mouse, plasma; for AUC(0-inf): read-out: AUCINF_obs; for half-life: read-out: T½ (converted); for Vd: read-out: Vss
Mnk1 = Mnk1 (Homo sapiens (Human), UniProt Q9BUB5); experiment: biochemical
Chain of Mnk1 (Q9BUB5 whole entry): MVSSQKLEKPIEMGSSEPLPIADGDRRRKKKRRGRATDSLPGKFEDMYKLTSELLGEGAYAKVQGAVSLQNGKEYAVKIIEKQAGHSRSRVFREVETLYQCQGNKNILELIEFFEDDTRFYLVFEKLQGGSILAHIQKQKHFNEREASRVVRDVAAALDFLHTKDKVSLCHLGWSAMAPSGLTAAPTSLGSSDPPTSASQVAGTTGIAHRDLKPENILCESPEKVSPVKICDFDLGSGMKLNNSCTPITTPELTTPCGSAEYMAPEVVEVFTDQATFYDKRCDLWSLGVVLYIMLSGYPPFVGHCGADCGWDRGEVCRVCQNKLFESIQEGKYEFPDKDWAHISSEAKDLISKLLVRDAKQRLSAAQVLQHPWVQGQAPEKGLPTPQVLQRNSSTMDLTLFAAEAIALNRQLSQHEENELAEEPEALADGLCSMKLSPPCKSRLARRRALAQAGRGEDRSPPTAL

[3] = formulation 10DMA/15EtOH/35PEG300/40D5W
[4] = formulation 10DMI/15EtOH/35PG/40Saline
[5] = formulation 10DMI/15EtOH/35PG/40D5W

Row | Compound | AUC(0-t) (in vivo; female) [ng·h/mL] | Cmax (in vivo; female) [ng/mL] | Tmax (in vivo; female) [h] | half-life (in vivo; female) [h] | Tlast ([1]; female) [h] | IC50 (Mnk1) [nM] | other results
1 | CC1(C)NC(=O)c2ccc(Nc3cc(NC(=O)C4CC4)ncn3)c(=O)n21 [Cpd. No. 10, N-(6-((3,3-dimethyl-1,5-dioxo-1,2,3,5-tetrahydroimidazo[1,5-a]pyridin-6-yl)amino)pyrimidin-4-yl)cyclopropanecarboxamide] | 6420 | 1720 | 0.5 | 1.87 | 8 |  | AUC(0-t) (in vivo; male): 8750 ng·h/mL; Cmax (in vivo; male): 2160 ng/mL; Tmax (in vivo; male): 1 h; half-life (in vivo; male): 4.22 h; Tlast ([1]; male): 24 h; AUC(0-inf) [2, 4]: 396 ng·h/mL; half-life [2, 4]: 2.8 h; Vd [2, 4]: 5.45 L/kg; Cl_obs [2, 4]: 42.1 mL/min/kg
2 | O=C1NC2(CCCC2)n2c1ccc(Nc1cc(NC(=O)C3CC3)ncn1)c2=O [Cpd. No. 21, N-[6-[(1,5-dioxospiro[2H-imidazo[1,5-a]pyridine-3,1′-cyclopentane]-6-yl)amino]pyrimidin-4-yl]cyclopropanecarboxamide] | 109 | 50.2 | 0.5 | 2.66 | 4 |  | 
3 | CC1(c2cccc(Cl)c2)NC(=O)c2c(Cl)cc(Nc3cc(NC(=O)C4CC4)ncn3)c(=O)n21 (centres unmarked) [Cpd. No. 51, N-[6-[[8-chloro-3-(3-chlorophenyl)-3-methyl-1,5-dioxo-2H-imidazo[1,5-a]pyridin-6-yl]amino]pyrimidin-4-yl]cyclopropanecarboxamide] | 31300 | 3160 |  | 7.38 | 24 |  | AUClast ([1]; female): 35800 ng·h/mL; T½ ([1]; female): 8.36 h; AUC(0-inf) [2, 4]: 2500 ng·h/mL; half-life [2, 4]: 5.78 h; Vd [2, 4]: 2.79 L/kg; Cl_obs [2, 4]: 6.66 mL/min/kg
4 | Cc1cc(Nc2cc(N)ncn2)c(=O)n2c1C(=O)NC21CCC(F)(F)CC1 [Cpd. No. 103, 6-[(6-aminopyrimidin-4-yl)amino]-4′,4′-difluoro-8-methyl-spiro[2H-imidazo[1,5-a]pyridine-3,1′-cyclohexane]-1,5-dione hydrochloride] |  |  |  |  |  | < 10 | 
5 | O=c1c(Nc2ccncn2)ccc2n1C1(CCCCC1)NC2=S [Cpd. No. 131, 6′-(pyrimidin-4-ylamino)-1′-thioxo-1′,2′-dihydro-5′H-spiro[cyclohexane-1,3′-imidazo[1,5-a]pyridin]-5′-one] |  |  |  |  |  | 10 to 100 | 
6 | CC1(C2CCCC2)NC(=O)c2ccc(Nc3ccncn3)c(=O)n21 (centres unmarked) [Cpd. No. 9, 3-cyclopentyl-3-methyl-6-(pyrimidin-4-ylamino)-2,3-dihydroimidazo[1,5-a]pyridine-1,5-dione] |  |  |  |  |  |  | AUC(0-t) (in vivo; male): 4830 ng·h/mL; Cmax (in vivo; male): 5050 ng/mL; Tmax (in vivo; male): 0.5 h; half-life (in vivo; male): 0.831 h; Tlast ([1]; male): 8 h
7 | CC1(c2cc(Cl)cc(Cl)c2)NC(=O)c2ccc(Nc3ccncn3)c(=O)n21 (centres unmarked) [Cpd. No. 33, 3-(3,5-dichlorophenyl)-3-methyl-6-(pyrimidin-4-ylamino)-2,3-dihydroimidazo[1,5-a]pyridine-1,5-dione] |  |  |  |  |  | 10 to 100 | 
8 | CC1(CC(F)(F)F)NC(=O)c2c(Cl)cc(Nc3ccncn3)c(=O)n21 (centres unmarked) [Cpd. No. 55, 8-chloro-3-methyl-6-(pyrimidin-4-ylamino)-3-(2,2,2-trifluoroethyl)-2H-imidazo[1,5-a]pyridine-1,5-dione] | 56900 | 6170 | 1 | 2.61 | 24 |  | 
9 | CC1(C(F)(F)F)NC(=O)c2c(Cl)cc(Nc3ccncn3)c(=O)n21 (centres unmarked) [Cpd. No. 35, 8-chloro-3-methyl-6-(pyrimidin-4-ylamino)-3-(trifluoromethyl)-2H-imidazo[1,5-a]pyridine-1,5-dione] | 71300 | 6930 | 2 | 3.46 | 24 |  | 
10 | CC1(c2cccc(F)c2)NC(=O)c2c(Cl)cc(Nc3cc(NC(=O)C4CC4)ncn3)c(=O)n21 (centres unmarked) [Cpd. No. 52, N-[6-[[8-chloro-3-(3-fluorophenyl)-3-methyl-1,5-dioxo-2H-imidazo[1,5-a]pyridin-6-yl]amino]pyrimidin-4-yl]cyclopropanecarboxamide] | 38100 | 3370 |  | 5.41 | 24 |  | AUClast ([1]; female): 22300 ng·h/mL; T½ ([1]; female): 3.56 h
11 | CC1(c2cccc(Cl)c2)NC(=O)c2c(Cl)cc(Nc3ccncn3)c(=O)n21 (centres unmarked) [Cpd. No. 58, 8-chloro-3-(3-chlorophenyl)-3-methyl-6-(pyrimidin-4-ylamino)-2H-imidazo[1,5-a]pyridine-1,5-dione] | 5430 | 690 | 2 | 5.32 | 24 |  | 
12 | CC1(C)NC(=O)c2c(Cl)cc(Nc3ncnc4cnccc34)c(=O)n21 [Cpd. No. 165, 8-chloro-3,3-dimethyl-6-(pyrido[3,4-d]pyrimidin-4-ylamino)-2,3-dihydroimidazo[1,5-a]pyridine-1,5-dione] |  |  |  |  |  | 10 to 100 | 
13 | O=C1NC2(CCC(F)(F)CC2)n2c1c(Cl)cc(Nc1cc(NC(=O)C3CC3)ncn1)c2=O [Cpd. No. 50, N-[6-[(8-chloro-4′,4′-difluoro-1,5-dioxo-spiro[2H-imidazo[1,5-a]pyridine-3,1′-cyclohexane]-6-yl)amino]pyrimidin-4-yl]cyclopropanecarboxamide] |  |  | 4 |  | 24 |  | AUC(0-inf) [2, 4]: 887 ng·h/mL; half-life [2, 4]: 2.47 h; Vd [2, 4]: 3.18 L/kg; Cl_obs [2, 4]: 18.8 mL/min/kg

The next lines start with results.

Row | AUC(0-t) (in vivo; female) [ng·h/mL] | Cmax (in vivo; female) [ng/mL] | Tmax (in vivo; female) [h] | half-life (in vivo; female) [h] | Tlast ([1]; female) [h] | IC50 (Mnk1) [nM] | Compound | other results
14 | 2760 | 950 | 1 | 5.3 | 8 |  | Cc1cc(Nc2cc(N)ncn2)c(=O)n2c1C(=O)NC21CCCCC1 [Cpd. No. 107, 6′-((6-aminopyrimidin-4-yl)amino)-8′-methyl-2′H-spiro[cyclohexane-1,3′-imidazo[1,5-a]pyridine]-1′,5′-dione] | AUC(0-inf) [2, 3]: 502 ng·h/mL; half-life [2, 3]: 2.91 h; Vd [2, 3]: 3.21 L/kg; Cl_obs [2, 3]: 33.2 mL/min/kg
15 |  |  |  |  |  | < 10 | Cc1cc(Nc2cc(N)ncn2)c(=O)n2c1C(=O)NC21CCCN(C)C1 (centres unmarked) [Cpd. No. 170, 6-[(6-aminopyrimidin-4-yl)amino]-1′,8-dimethyl-spiro[2H-imidazo[1,5-a]pyridine-3,3′-piperidine]-1,5-dione] | 
16 |  |  |  |  |  | < 10 | Cc1cc(Nc2cc(N)ncn2)c(=O)n2c1C(=O)NC2(C)c1cccc(Cl)c1 (centres unmarked) [Cpd. No. 92, 6-[(6-aminopyrimidin-4-yl)amino]-3-(3-chlorophenyl)-3,8-dimethyl-2H-imidazo[1,5-a]pyridine-1,5-dione] | 
17 |  |  |  |  |  | < 10 | CC(C)(C)C1(C)NC(=O)c2c(Cl)cc(Nc3cc(N)ncn3)c(=O)n21 (centres unmarked) [Cpd. No. 105, 6-[(6-aminopyrimidin-4-yl)amino]-3-tert-butyl-8-chloro-3-methyl-2H-imidazo[1,5-a]pyridine-1,5-dione hydrochloride] | 
18 | 4180 | 1200 | 0.3 | 3.1 | 8 |  | Cc1cc(Nc2cc(N)ncn2)c(=O)n2c1C(=O)NC21CCCC1.Cl [Cpd. No. 98, 6-[(6-aminopyrimidin-4-yl)amino]-8-methyl-spiro[2H-imidazo[1,5-a]pyridine-3,1′-cyclopentane]-1,5-dione hydrochloride] | AUC(0-inf) [2, 3]: 358 ng·h/mL; half-life [2, 3]: 1.79 h; Vd [2, 3]: 3.56 L/kg; Cl_obs [2, 3]: 46.6 mL/min/kg
19 | 2040 | 810 | 0.5 | 2.97 | 8 |  | CC1(C)NC(=O)c2c(Cl)cc(Nc3cc(N)ncn3)c(=O)n21 [Cpd. No. 88, 6-[(6-aminopyrimidin-4-yl)amino]-8-chloro-3,3-dimethyl-2H-imidazo[1,5-a]pyridine-1,5-dione] | AUC(0-inf) [2, 3]: 273 ng·h/mL; half-life [2, 3]: 1.3 h; Vd [2, 3]: 3.03 L/kg; Cl_obs [2, 3]: 61 mL/min/kg
20 |  |  |  |  |  | < 10 | Nc1cc(Nc2cc(Cl)c3n(c2=O)C2(CCc4ccc(Cl)cc42)NC3=O)ncn1 (centres unmarked) [Cpd. No. 111, 6-[(6-aminopyrimidin-4-yl)amino]-6′,8-dichloro-spiro[2H-imidazo[1,5-a]pyridine-3,1′-indane]-1,5-dione hydrochloride] | 
21 | 1470 | 983 | 0.25 | 2 | 8 |  | Nc1cc(Nc2cc(Cl)c3n(c2=O)C2(CCCCC2)NC3=O)ncn1 [Cpd. No. 70, 6′-((6-aminopyrimidin-4-yl)amino)-8′-chloro-2′H-spiro[cyclohexane-1,3′-imidazo[1,5-a]pyridine]-1′,5′-dione] | AUClast ([1]; female): 2010 ng·h/mL; T½ ([1]; female): 3.74 h; AUC(0-inf) [2, 5]: 333 ng·h/mL; half-life [2, 5]: 0.561 h; Vd [2, 5]: 1.8 L/kg; Cl_obs [2, 5]: 50.1 mL/min/kg
